Results: PubChem BioAssay AID196 (DTP/NCI, 2004)
Several values for one entry are separate records, joined by “and”; a condition that tells them apart may be missing. Equal entries are not always repeated. Inconclusive results and toxic doses are left out.

Tested on: BDF1 mice, intracerebral B16 melanoma, median survival T/C
Experiment: NCI In Vivo Anticancer Drug Screen. Data for tumor model B16 Melanoma (intracerebral) in B6D2F1 (BDF1) mice
Details: endpoint: median survival time, higher = longer survival
Procedure: The antitumor activity of compounds was measured in mice bearing transplantable tumors. Survival or tumor size were measured and the results are expressed as the measurement made in the treated group (T) divided by the measurement made in the vehicle treated control group (C). The tumor model used in this assay is B16 Melanoma (intracerebral) in B6D2F1 (BDF1) mice

[1] = dose: 128.0 mg/kg/injection, schedule: Q01DX009 (ip), vehicle: Klucel (hydroxypropylcellulose) (HPC)
[2] = dose: 256.0 mg/kg/injection, schedule: Q01DX009 (ip), vehicle: Klucel (hydroxypropylcellulose) (HPC)
[3] = dose: 40.0 mg/kg/injection, schedule: Q01DX001 (ip), vehicle: Klucel (hydroxypropylcellulose) (HPC)
[4] = dose: 60.0 mg/kg/injection, schedule: Q01DX001 (ip), vehicle: Klucel (hydroxypropylcellulose) (HPC)

## COCC(O)Cn1ccnc1[N+](=O)[O-] (stereo not given)
[1]
  T/C: 89 % of control
[2]
  T/C: 86 % of control

## CN(C)/N=N/c1[nH]ncc1C(N)=O
dose: 64.0 mg/kg/injection, schedule: Q01DX005 (ip), vehicle: saline with Tween-80
  T/C: 154 % of control
dose: 128.0 mg/kg/injection, schedule: Q01DX005 (ip), vehicle: saline with Tween-80
  T/C: 121 % of control

## C[n+]1c2ccccc2nc2c(N)cc(N)cc21
dose: 4.0 mg/kg/injection, schedule: Q01DX005 (ip), vehicle: suspension in saline
  T/C: 93 % of control
dose: 8.0 mg/kg/injection, schedule: Q01DX005 (ip), vehicle: suspension in saline
  T/C: 92 % of control and 98 % of control
dose: 16.0 mg/kg/injection, schedule: Q01DX005 (ip), vehicle: suspension in saline
  T/C: 100 % of control and 103 % of control
dose: 32.0 mg/kg/injection, schedule: Q01DX005 (ip), vehicle: suspension in saline
  T/C: 93 % of control and 97 % of control

## CO[C@H](C(=O)[C@@H](O)[C@@H](C)O)[C@@H]1Cc2cc3cc(OC4CC(OC5CC(O)C(O)C(C)O5)C(O)C(C)O4)c(C)c(O)c3c(O)c2C(=O)[C@H]1OC1CC(OC2CC(OC3CC(C)(O)C(O)C(C)O3)C(O)C(C)O2)C(O)C(C)O1 (stereo not given in full)
dose: 0.13 mg/kg/injection, schedule: Q01DX009 (ip), vehicle: saline
  T/C: 91 % of control and 95 % of control
dose: 0.25 mg/kg/injection, schedule: Q01DX009 (ip), vehicle: saline
  T/C: 109 % of control and 112 % of control
dose: 0.5 mg/kg/injection, schedule: Q01DX009 (ip), vehicle: saline
  T/C: 91 % of control and 100 % of control
dose: 1.0 mg/kg/injection, schedule: Q01DX009 (ip), vehicle: saline
  T/C: 87 % of control and 90 % of control

## Cc1c(N)nc([C@H](CC(N)=O)NC[C@H](N)C(N)=O)nc1C(=O)N[C@H](C(=O)N[C@H](C)[C@@H](O)[C@H](C)C(=O)N[C@H](C(=O)NCCc1nc(-c2nc(C(=O)NCCC[S+](C)C)cs2)cs1)[C@@H](C)O)C(OC1OC(CO)C(O)C(O)C1OC1OC(CO)C(O)C(OC(N)=O)C1O)c1cnc[nH]1 (stereo not given in full)
dose: 4.0 mg/kg/injection, schedule: Q01DX009 (ip), vehicle: saline
  T/C: 110 % of control
dose: 8.0 mg/kg/injection, schedule: Q01DX009 (ip), vehicle: saline
  T/C: 120 % of control
dose: 16.0 mg/kg/injection, schedule: Q01DX009 (ip), vehicle: saline
  T/C: 106 % of control

## Cc1[nH]c(=O)[nH]c(=O)c1N(CCF)CCCl
dose: 2.0 mg/kg/injection, schedule: Q01DX009 (ip), vehicle: water
  T/C: 107 % of control
dose: 4.0 mg/kg/injection, schedule: Q01DX009 (ip), vehicle: water
  T/C: 104 % of control
dose: 8.0 mg/kg/injection, schedule: Q01DX009 (ip), vehicle: water
  T/C: 112 % of control
dose: 16.0 mg/kg/injection, schedule: Q01DX009 (ip), vehicle: water
  T/C: 104 % of control
dose: 32.0 mg/kg/injection, schedule: Q01DX009 (ip), vehicle: water
  T/C: 102 % of control

## CCC(=O)O[C@H]1CC[C@H]2[C@@H]3CC[C@H]4CC(=O)[C@H](C)C[C@]4(C)[C@H]3CC[C@]12C
dose: 8.0 mg/kg/injection, schedule: Q01DX009 (ip), vehicle: Klucel (hydroxypropylcellulose) (HPC)
  T/C: 100 % of control
dose: 16.0 mg/kg/injection, schedule: Q01DX009 (ip), vehicle: Klucel (hydroxypropylcellulose) (HPC)
  T/C: 94 % of control
dose: 32.0 mg/kg/injection, schedule: Q01DX009 (ip), vehicle: Klucel (hydroxypropylcellulose) (HPC)
  T/C: 105 % of control
dose: 64.0 mg/kg/injection, schedule: Q01DX009 (ip), vehicle: Klucel (hydroxypropylcellulose) (HPC)
  T/C: 100 % of control
[1]
  T/C: 101 % of control
[2]
  T/C: 103 % of control
dose: 512.0 mg/kg/injection, schedule: Q01DX009 (ip), vehicle: Klucel (hydroxypropylcellulose) (HPC)
  T/C: 94 % of control

## O=NN(CCF)C(=O)N[C@H]1CCCC[C@H]1O
dose: 26.7 mg/kg/injection, schedule: Q01DX001 (ip), vehicle: Klucel (hydroxypropylcellulose) (HPC)
  T/C: 151 % of control
[3]
  T/C: 155 % of control
[4]
  T/C: 330 % of control

## COS(C)(=O)=O
dose: 16.0 mg/kg/injection, schedule: Q01DX005 (ip), vehicle: saline
  T/C: 89 % of control
dose: 32.0 mg/kg/injection, schedule: Q01DX005 (ip), vehicle: saline
  T/C: 100 % of control
dose: 64.0 mg/kg/injection, schedule: Q01DX005 (ip), vehicle: saline
  T/C: 95 % of control
dose: 128.0 mg/kg/injection, schedule: Q01DX005 (ip), vehicle: saline
  T/C: 106 % of control

## O=NN(CCF)C(=O)NC1C(O)CCCC1O (stereo not given)
dose: 13.0 mg/kg/injection, schedule: Q01DX001 (ip), vehicle: saline
  T/C: 115 % of control
dose: 17.8 mg/kg/injection, schedule: Q01DX001 (ip), vehicle: Klucel (hydroxypropylcellulose) (HPC)
  T/C: 120 % of control
dose: 21.6 mg/kg/injection, schedule: Q01DX001 (ip), vehicle: saline
  T/C: 111 % of control
[3]
  T/C: 160 % of control
[4]
  T/C: 171 % of control
dose: 60.0 mg/kg/injection, schedule: Q01DX001 (ip), vehicle: saline
  T/C: 189 % of control
